From BigSolDB 2.1

O=C(Nc1ccc(F)cc1F)c1cccnc1Oc1cccc(C(F)(F)F)c1
solubility (mole fraction)
Details	278.15 K	283.15 K	288.15 K	293.15 K	298.15 K	303.15 K	308.15 K	313.15 K	318.15 K	323.15 K
in ethanol	0.000246	0.000325	0.000425	0.00055	0.000703	0.000894	0.00113	0.00142	0.00177	0.0022
in ethyl acetate	0.0105	0.0125	0.015	0.0176	0.0206	0.024	0.0281	0.0322	0.0371	0.0429
in isopropanol	4.4e-05	7.09e-05	0.000114	0.000186	0.000292	0.000456	0.00069	0.00104	0.00158	0.00232
in methanol	0.000223	0.0003	0.000385	0.000489	0.000633	0.000799	0.000999	0.00125	0.00155	0.00193
in water	1.52e-07	2e-07	2.53e-07	3.15e-07	3.93e-07	4.84e-07	5.94e-07	7.19e-07	8.81e-07	1.07e-06
